Experimental data published in EPA's ToxValDB 9.5.
Converted amounts (≈) assume the structure as drawn. “And” between values parts separate entries of the source, which are not always exact repeats. Identical values can stand only once.

How the values were obtained:
[1] = test system: Rattus norvegicus; conditions: oral
[2] = test system: Rattus norvegicus; conditions: for LD50 / LC50: acute
[3] = reproduction developmental, duration: 24 weeks, inhalation, generation: F0
[4] = reproduction developmental, duration: 24 weeks, inhalation, generation: F1
[5] = reproduction developmental, duration: 10 days, oral, gavage, F
[6] = short-term, duration: 12 days, inhalation, F, Fischer 344
[7] = short-term, duration: 12 days, inhalation, M, Fischer 344
[8] = short-term, duration: 14 days, oral, gavage, F, Crj:CD(SD)
[9] = short-term, duration: 14 days, oral, gavage, M, Crj:CD(SD)
[10] = subchronic, duration: 13 weeks, inhalation, F, Fischer 344
[11] = subchronic, duration: 13 weeks, inhalation, M, Fischer 344
[12] = reproduction developmental, duration: 7 days, oral, gavage, F, CD Strain from Charles River

## N#[N+]c1ccc2c(S(=O)(=O)[O-])cccc2c1[O-].[Na+]
[1]; subchronic, gavage, M, Sprague-Dawley, Clinical Observation: Loose stool Mucous stool Soiled perineal region Brownish urine + Body Weight Changes: decrease(trend) + Food …
  NOEL: < 40 mg/kg-day

## Nc1c(S(=O)(=O)O)cc(Br)c2c1C(=O)c1ccccc1C2=O
[1]; short-term, duration: 28 days, gavage, M/F, Deaths + Clinical Observation: Polyuria + Body Weight Changes: Body weight gain decrease + Water Consumption: increase + Urinalysis: Urine …
  NOEL: 50 mg/kg-day

## C=CCOC(=O)c1ccccc1-c1ccccc1C(=O)OCC=C
[1]; short-term, duration: 28 days, gavage, M/F, Clinical Observation: Salivation + Hematology: APTT increase, PT increase + Blood Chemistry: GOT increase, GPT increase, gamma-GTP increase…
  NOEL: 6 mg/kg-day

## C=CS(=O)(=O)CCNC(=O)c1cccc(Nc2nc(F)nc(Nc3cc(S(=O)(=O)[O-])cc4cc(S(=O)(=O)[O-])c(N=Nc5ccc6c(S(=O)(=O)[O-])cccc6c5S(=O)(=O)[O-])c(O)c34)n2)c1.[Na+].[Na+].[Na+].[Na+]
[1]; short-term, duration: 28 days, gavage, M/F, Urinalysis: Occult blood increase, Bil increase + Hematology: RET increase, WBC increase, LYMPH increase + Blood Chemistry: BUN increase, T-…
  NOEL: 50 mg/kg-day

## CC(C)(C)c1cc(-n2nc3ccc(Cl)cc3n2)c(O)c(C(C)(C)C)c1
[1]; subchronic, duration: 42 days, gavage, M, CD(SD), Hematology: RBC decrease, NEUT increase, APTT decrease + Blood Chemistry: ALB increase, A/G increase, ALP increase, T-BIL decreasea2-GLOB …
  NOAEL: 2.5 mg/kg-day

## CC(C)(C)c1cc(CCC(=O)NNC(=O)CCc2cc(C(C)(C)C)c(O)c(C(C)(C)C)c2)cc(C(C)(C)C)c1O
[2]; oral
  LD50: > 7000 mg/kg
[2]; short-term, duration: 28 days, oral, diet
  NOAEL: > 10000 ppm
[2]; subchronic, duration: 3 months, oral, diet
  NOAEL: 38.4 mg/kg-day

## CC(C)(C)c1cc2nc(-c3ccc(N)cc3)nn2[nH]1
[1]; short-term, duration: 28 days, gavage, M/F, Deaths + Clinical Observation: Locomotor activity decrease, Piloerection + Body Weight Changes: Gain decrease + Hematology: RBC decrease, …
  NOEL: 2 mg/kg-day

## CC(C)(c1ccccc1)c1ccc(Nc2ccc(C(C)(C)c3ccccc3)cc2)cc1
[2]; oral, gavage
  LC50: > 10000 mg/kg

## Cc1cc(S(=O)(=O)[O-])c(N)cc1Cl.[Na+]
[1]; subchronic, gavage, M, Sprague-Dawley, Food Consumption: increase + Urinalysis: pH decrease + Absolute Organ Weight: Kidney increase + Relative Organ Weight: Kidney increase
  NOEL: 300 mg/kg-day

## COc1cc(S(=O)(=O)CCOS(=O)(=O)O)c(C)cc1N
[1]; short-term, duration: 28 days, gavage, M, Absolute Organ Weight: Liver increase + Histopathology: Kidney-Eosinophilic droplet, tubular epithelium
  NOEL: 30 mg/kg-day

## ClC(Cl)C(Cl)Cl [1,1,2,2-Tetrachloroethane]
[1]; subchronic, diet, F, Fischer 344, Clinical Observation: Thinness Pallor + Body Weight Changes: decrease + Food Consumption: decrease + Hematology: Manual Hct decrease, Plt …
  NOEL: 10.1 mg/kg-day
[1]; subchronic, diet, M/F, Fischer 344, Clinical Observation: Thinness Pallor + Body Weight Changes: decrease + Food Consumption: decrease + Hematology: Manual Hct decrease, Plt …
  NOEL: < 25.7 mg/kg-day
[1]; subchronic, diet, M, Fischer 344, Clinical Observation: Thinness Pallor + Body Weight Changes: decrease + Food Consumption: decrease + Hematology: Manual Hct decrease, Plt …
  NOEL: 16.6 mg/kg-day

## CC(C)OC1(OC(C)C)CCCCC1 [1,1-Diisopropoxycyclohexane]
[1]; subchronic, gavage, M, Sprague-Dawley, Clinical Observation: Salivation + Food Consumption: increase + Blood Chemistry: T-Cho increase + Absolute Organ Weight: Liver increase, …
  NOEL: 40 mg/kg-day

## O=C(O)c1cccc(C(=O)O)c1 [1,3-Benzenedicarboxylic acid]
[2]; developmental, duration: 10 days, Inhalation, Sprague-Dawley
  NOAEL: > 10 mg/m3

## C1COCO1 [1,3-Dioxolane]
[2]; inhalation, Crl:CD1
  LC50: 68.4 µg/mL (≈ 923 µM)
[2]; oral, gavage, Sprague-Dawley
  LD50: 5200 mg/kg
[2]; developmental, duration: 10 days, oral, gavage
  LOAEL: 1000 mg/kg-day
[2]; [3]
  LOAEL: > 379 mg/m3
  NOAEL: 379 mg/m3
[2]; [4]
  LOAEL: > 379 mg/m3
  NOAEL: 379 mg/m3
[2]; [5]
  LOAEL: 500 mg/kg-day
  NOAEL: 250 mg/kg-day
[2]; [6]
  LOAEL: 7030 mg/m3
  NOAEL: 1560 mg/m3
[2]; [7]
  LOAEL: 7030 mg/m3
  NOAEL: 1560 mg/m3
[2]; [8]
  LOAEL: 250 mg/kg-day
  NOAEL: 75 mg/kg-day
[2]; [9]
  LOAEL: 250 mg/kg-day
  NOAEL: 75 mg/kg-day
[2]; [10]
  LOAEL: 3030 mg/m3
  NOAEL: 903 mg/m3
[2]; [11]
  LOAEL: 9120 mg/m3
  NOAEL: 3030 mg/m3

## OCCCO [1,3-Propanediol]
[2]; oral, gavage, Wistar
  LD50: 15.8 mg/kg

## NCCCCCCN [1,6-Hexanediamine]
[2]; inhalation, Crl
  LC50: > 0.95 µg/mL
[2]; oral, gavage, Crl:CD(SD)
  LD50: 1130 mg/kg and 792 mg/kg
[2]; developmental, duration: 7 days, oral, gavage, CD Strain from Charles River
  LOAEL: 184 mg/kg-day
[2]; reproduction developmental, duration: 40 weeks, oral, diet, Charles River COBS CD, Portage Michigan
  NOAEL: 150 mg/kg-day
[2]; [12]
  LOAEL: 184 mg/kg-day
  NOAEL: 112 mg/kg-day
[2]; subchronic, duration: 13 weeks, Inhalation, Crl:CD(SD)
  NOAEL: 12.8 mg/m3

## CC(=O)O.CC(C)CCCCCCCOCCCN [1-Propanamine, 3-(isodecyloxy)-, acetate]
[2]; oral, gavage, Sprague-Dawley
  LD50: 1030 mg/kg and 1460 mg/kg and 1220 mg/kg

## CC(C)(CO)CO [2,2-Dimethylpropane-1,3-diol]
[2]; oral
  LD50: 3200 mg/kg
[2]; reproduction developmental, oral, Sprague-Dawley, generation: F0
  NOAEL: 1000 mg/kg-day
[2]; reproduction developmental, oral, Sprague-Dawley, generation: F1
  NOAEL: 1000 mg/kg-day
[2]; reproduction developmental, oral, gavage, Sprague-Dawley
  NOAEL: 100 mg/kg-day
[2]; short-term, duration: 2 weeks, oral, gavage, Wistar
  NOAEL: 1000 mg/kg-day

## Cc1ccc(C)c(O)c1C [2,3,6-Trimethylphenol]
[2]; oral, gavage
  LD50: > 2000 mg/kg
